Measurements from ChEMBL document CHEMBL1153006, “Synthesis, NMR characterization and in vitro antitumor evaluation of new aminophosphonic acid diesters” (Eur J Med Chem, 2009).

Assays:
Assay type in all cases: functional, cell-based
LAMA-84 = test: Cytotoxicity against human LAMA-84 cells after 72 hrs by MTT assay; settings: LAMA-84, 72 h
K562 = test: Cytotoxicity against human K562 cells after 72 hrs by MTT assay; settings: K562, 72 h
HL-60 [1] = test: Cytotoxicity against multidrug-resistant human HL60 cells overexpressing in MRP-1 after 72 hrs by MTT assay; settings: HL-60, 72 h
HL-60 [2] = test: Cytotoxicity against human HL60 cells after 72 hrs by MTT assay; settings: HL-60, 72 h

| SMILES | IC50 (LAMA-84) [µM] | IC50 (K562) [µM] | IC50 (HL-60 [1]) [µM] | IC50 (HL-60 [2]) [µM] |
| --- | --- | --- | --- | --- |
| Cc1ccc(/N=C\c2ccc(N(C)C)cc2)cc1 | 252 | 213 | 226 | > 400 |
| CCOP(=O)(OCC)C(NCCCN(C)C)c1ccco1 (stereo unspecified) | > 400 | 353 | 190 | 163 |
| CCOP(=O)(OCC)C(Nc1ccc(C)cc1)c1ccc(N(C)C)cc1 (stereo unspecified) | 119 | 42.4 | 107 | > 400 |
| Cc1ccc(/N=C\c2ccco2)cc1 [N-FURFURYLIDENE-P-TOLUIDINE] | 39.9 | 29.9 | 68.6 | > 400 |
